Read-outs that look alike come from different tables or passages of the source.
Tests used:
Format in all cases: cell-based, human
NCI-H460 [1] = test: ATP luminescence proliferation assay, NCI-H460
Procedure: (§1) This example generally describes the procedures used to assay the antiproliferative activity of compounds of this invention or their conjugates. Human tumor cell lines were obtained from the American Type Culture Collection (ATCC), P.O. Box 1549, Manassas, Va. 20108, USA, and cultured according to instruction from the ATCC. Cells were seeded at 1.0×10^3 or 1.0×10^4 cells/well in 96-well plates for 3 h for ATP assays or ^3H thymidine assays, respectively. 1:3 serial dilutions of free (unconjugated) compounds or their conjugates were added to the wells. Plates were allowed to incubate for 24 to 72 h. The ^3H thymidine plates were pulsed with 1.0 μCi of ^3H-thymidine per well for the last 24 hours of the total incubation period, harvested, and read on a Top Count Scintillation Counter (Packard Instruments, Meriden, Conn.). ATP levels in the ATP plates were measured using the […]-GLO® Luminescent Cell Viability kit following the manufacturer's manual and read on a GLOMAX® 20/20 luminometer (both from Promega, Madison, Wis., USA). The EC50 values—the concentration at which an agent inhibits or reduces cell proliferation by 50% —were determined using PRISM™ software, version 4.0 (GraphPad Software, La Jolla, Calif., USA).
(§2) Using the ^3H thymidine or the ATP luminescence assay, or both, the activities of compounds of this invention were assayed against the following cancer cell lines: HCT-15 (colorectal cancer, multi-drug resistant (MDR)); Hep3B (liver cancer); LNCaP (prostate cancer, androgen receptor positive (AR^+)); MDA-MB-231 (breast cancer, estrogen receptor, progesterone receptor, and Her2 negative (triple negative)); A2058 (melanoma); U-87 MG (glioblastoma); NCI-H460 (NSCLC); A549 (NSCLC); HPAC (pancreatic cancer, primary); PC3 (prostate cancer, AR); BT474 (breast cancer, Her2 highly positive (Her2hi)); SKOV3 (ovarian cancer, Her2hi); 786-O (renal cancer); UO-31 (renal cancer, MDR); NCI-H740 (SCLC); DMS53 (SCLC); SK-BR3 (breast cancer, Her2hi); ZR-75 (breast cancer, estrogen receptor positive); OVCAR3 (ovarian cancer); HL-60 (APL); OVCAR8/Adr (ovarian cancer, MDR); CEM-Cl (ALL); Nomo-1 (AML); RPMI-8226 (MM)); Raji (lymphoma); SW-480 (colorectal cancer, metastatic); SW-620 (colorectal cancer); and H226 (lung cancer). (Not all compounds were assayed against all cell lines.)
(§3) Table 3 provides the data for the ATP luminescence proliferation assays, with an incubation period of 48, 72, or 96 h, as noted.

U-87 MG = test: 3H thymidine proliferation assay, U-87 MG
Procedure: as §1, §2
(§4) Table 2 provides the data for proliferation assays using the ^3H thymidine method, with an incubation period of 72 h.

786-O [2] = test: ATP luminescence proliferation assay, 786-O
Procedure: as §1, §2
(§5) FIGS. 12a and 12b show illustrative plots for ATP luminescence proliferation assays for a second set of compounds of this invention, against HL-60 and 786-O cells, respectively, with an incubation period of 72 h. FIGS. 12c and 12d show the plots for ^3H thymidine proliferation assays for the same set of compounds, again against HL-60 and 786-O cells, respectively, with a 72 h incubation period. In each instance, doxorubicin was used as a comparative compound.
as §3

ZR-75 = test: ATP luminescence proliferation assay, ZR-75
Procedure: as §1, §2, §3

HCT-15 = test: ATP luminescence proliferation assay, HCT-15
Procedure: as §1, §2, §3

SK-BR3 = test: 3H thymidine proliferation assay, SK-BR3; settings: 3H thymidine method, 72 h incubation
Procedure: as §1, §2, §4

RPMI-8226 = test: ATP luminescence proliferation assay, RPMI-8226
Procedure: as §1, §2, §3

SW-480 = test: ATP luminescence proliferation assay, SW-480
Procedure: as §1, §2, §3

SW-620 = test: ATP luminescence proliferation assay, SW-620
Procedure: as §1, §2, §3

PC3 = test: 3H thymidine proliferation assay, PC3
Procedure: as §1, §2, §4

CEM-Cl = test: ATP luminescence proliferation assay, CEM-C1
Procedure: as §1, §2, §3

MDA-MB-231 = test: 3H thymidine proliferation assay, MDA-MB-231
Procedure: as §1, §2, §4

NCI-H460 [3] = test: 3H thymidine proliferation assay, NCI-H460
Procedure: as §1, §2, §4

HPAC = test: 3H thymidine proliferation assay, HPAC
Procedure: as §1, §2, §4

SKOV3 = test: ATP luminescence proliferation assay, SKOV3
Procedure: as §1, §2, §3

HL-60 = test: ATP luminescence proliferation assay, HL-60
Procedure: as §1, §2, §5, §3

786-O [4] = test: 3H thymidine proliferation assay, 786-O
Procedure: as §1, §2, §4

[5] = Homo sapiens, NCI-H460, 48 h, read-out: EC50 NCI-H460 (48 h), ATP luminescence, NCI-H460, 48 h incubation
[6] = Homo sapiens, U-87 MG, read-out: EC50, U-87 MG, 3H thymidine method, 72 h incubation
[7] = Homo sapiens, 786-0, 72 h, read-out: EC50 786-O (72 h), ATP luminescence, 786-O, 72 h incubation
[8] = Homo sapiens, ZR75, 48 h, read-out: EC50 ZR-75 (48 h), ATP luminescence, ZR-75, 48 h incubation
[9] = Homo sapiens, HCT-15, 48 h, read-out: EC50 HCT-15 (48 h), ATP luminescence, HCT-15, 48 h incubation
[10] = Homo sapiens, RPMI-8226, 72 h, read-out: EC50 RPMI-8226 (72 h), ATP luminescence, RPMI-8226, 72 h incubation
[11] = Homo sapiens, SW480, 96 h, read-out: EC50 SW480 (96 h), ATP luminescence, SW480, 96 h incubation
[12] = Homo sapiens, SW-620, 96 h, read-out: EC50 SW-620 (96 h), ATP luminescence, SW-620, 96 h incubation
[13] = Homo sapiens, PC-3, read-out: EC50, PC3, 3H thymidine method, 72 h incubation
[14] = Homo sapiens, CEM/C1, 72 h, read-out: EC50 CEM-C1 (72 h), ATP luminescence, CEM-C1, 72 h incubation
[15] = Homo sapiens, MDA-MB-231, read-out: EC50, MDA-MB-231, 3H thymidine method, 72 h incubation
[16] = Homo sapiens, NCI-H460, read-out: EC50, NCI-H460, 3H thymidine method, 72 h incubation
[17] = Homo sapiens, HPAC, read-out: EC50, HPAC, 3H thymidine method, 72 h incubation
[18] = Homo sapiens, SK-OV-3, 48 h, read-out: EC50 SKOV3 (48 h), ATP luminescence, SKOV3, 48 h incubation
[19] = Homo sapiens, HL-60, 72 h, read-out: EC50 HL-60 (72 h), ATP luminescence, HL-60, 72 h incubation
[20] = 3H thymidine method, 72 h incubation, read-out: EC50, 786-O
[21] = ATP luminescence, NCI-H460, 48 h incubation, read-out: EC50 NCI-H460 (48 h)
[22] = 3H thymidine method, 72 h incubation, read-out: EC50, U-87 MG
[23] = ATP luminescence, 786-O, 72 h incubation, read-out: EC50 786-O (72 h)
[24] = ATP luminescence, ZR-75, 48 h incubation, read-out: EC50 ZR-75 (48 h)
[25] = ATP luminescence, HCT-15, 48 h incubation, read-out: EC50 HCT-15 (48 h)
[26] = ATP luminescence, RPMI-8226, 72 h incubation, read-out: EC50 RPMI-8226 (72 h)
[27] = ATP luminescence, SW480, 96 h incubation, read-out: EC50 SW480 (96 h)
[28] = ATP luminescence, SW-620, 96 h incubation, read-out: EC50 SW-620 (96 h)
[29] = 3H thymidine method, 72 h incubation, read-out: EC50, PC3
[30] = ATP luminescence, CEM-C1, 72 h incubation, read-out: EC50 CEM-C1 (72 h)
[31] = 3H thymidine method, 72 h incubation, read-out: EC50, MDA-MB-231
[32] = 3H thymidine method, 72 h incubation, read-out: EC50, NCI-H460
[33] = 3H thymidine method, 72 h incubation, read-out: EC50, HPAC
[34] = ATP luminescence, SKOV3, 48 h incubation, read-out: EC50 SKOV3 (48 h)
[35] = ATP luminescence, HL-60, 72 h incubation, read-out: EC50 HL-60 (72 h)

SMILES | EC50 (NCI-H460 [1]; [5]) [nM] | EC50 (U-87 MG; [6]) [nM] | EC50 (786-O [2]; [7]) [nM] | EC50 (ZR-75; [8]) [nM] | EC50 (HCT-15; [9]) [nM] | EC50 (SK-BR3; Homo sapiens, SK-BR-3) [nM] | EC50 (RPMI-8226; [10]) [nM] | EC50 (SW-480; [11]) [nM] | EC50 (786-O [4]; [20]) [nM] | EC50 (U-87 MG; [22]) [nM] | EC50 (RPMI-8226; [26]) [nM] | EC50 (SW-480; [27]) [nM] | EC50 (SW-620; [28]) [nM] | EC50 (PC3; [29]) [nM] | EC50 (CEM-Cl; [30]) [nM] | EC50 (MDA-MB-231; [31]) [nM] | EC50 (NCI-H460 [3]; [32]) [nM] | EC50 (HPAC; [33]) [nM] | EC50 (SKOV3; [34]) [nM] | EC50 (HL-60; [35]) [nM] | further results
CC[C@H](C)[C@H](NC(=O)[C@H]1CCCCN1C)C(=O)N(C)[C@H](C[C@@H](OC)c1nc(C(=O)NC(Cc2ccccc2)C[C@H](C)C(=O)O)cs1)C(C)C (some centres unmarked) [Compound 15] | 6.7 | 0.42 | 9.4 | 13 | 40 | 17 | 2.6 | 5.6 | – | – | – | – | – | – | – | – | – | – | – | – | EC50 (SW-620; [12]): 3.7 nM; EC50 (PC3; [13]): 1.7 nM; EC50 (CEM-Cl; [14]): 2.6 nM; EC50 (MDA-MB-231; [15]): 1.3 nM; EC50 (NCI-H460 [3]; [16]): 2 nM; EC50 (HPAC; [17]): 3 nM; EC50 (SKOV3; [18]): 4.2 nM; EC50 (HL-60; [19]): 2.7 nM
CCCC(NC(=O)c1csc([C@@H](C[C@H](C(C)C)N(C)C(=O)[C@@H](NC(=O)[C@H]2CCCCN2C)[C@@H](C)CC)OC)n1)C(=O)OC (some centres unmarked) [Compound 17] | 69 | 12 | 73 | 24 | 443 | > 100 | 15 | 92 | – | – | – | – | – | – | – | – | – | – | – | – | EC50 (786-O [4]; Homo sapiens, 786-0, read-out: EC50, 786-O, 3H thymidine method, 72 h incubation): 32 nM; EC50 (SW-620; [12]): 65 nM; EC50 (PC3; [13]): 82 nM; EC50 (CEM-Cl; [14]): 26 nM; EC50 (MDA-MB-231; [15]): 84 nM; EC50 (NCI-H460 [3]; [16]): > 100 nM; EC50 (HPAC; [17]): > 100 nM; EC50 (SKOV3; [18]): 58 nM; EC50 (HL-60; [19]): 7.4 nM
CC[C@H](C)[C@H](NC(=O)[C@H]1CCCCN1C)C(=O)N(C)[C@H](C[C@@H](OC)c1nc(C(=O)N[C@@H](Cc2ccccc2)C(=O)OC)cs1)C(C)C [Compound 16] | – | – | – | – | – | – | – | – | 19 | > 100 | 15 | 48 | 29 | > 100 | 2.5 | > 100 | > 100 | > 100 | 18 | 2.8 | EC50 (NCI-H460 [1]; [21]): 69 nM; EC50 (786-O [2]; [23]): 36 nM; EC50 (ZR-75; [24]): 11 nM; EC50 (HCT-15; [25]): 157 nM; EC50 (SK-BR3): > 100 nM
CC[C@H](C)[C@H](NC(=O)[C@H]1CCCCN1C)C(=O)N(COC(=O)CC(C)C)[C@H](C[C@@H](OC(C)=O)c1nc(C(=O)N[C@@H](Cc2ccccc2)C[C@H](C)C(=O)O)cs1)C(C)C [Tub D, tubulysin D, reference compound] | – | – | – | – | – | – | – | – | 0.15 | 0.014 | 0.0051 | 0.02 | 0.0058 | 0.038 | 0.003 | 0.091 | 0.032 | 0.015 | 0.029 | 0.0096 | EC50 (NCI-H460 [1]; ATP luminescence, NCI-H460, 72 h incubation, read-out: EC50 NCI-H460 (72 h)): 0.0076 nM; EC50 (786-O [2]; ATP luminescence, 786-O, 48 h incubation, read-out: EC50 786-O (48 h)): 0.022 nM; EC50 (ZR-75; ATP luminescence, ZR-75, 72 h incubation, read-out: EC50 ZR-75 (72 h)): 0.034 nM; EC50 (HCT-15; ATP luminescence, HCT-15, 72 h incubation, read-out: EC50 HCT-15 (72 h)): 0.014 nM
CC[C@H](C)[C@H](NC(=O)[C@H]1CCCCN1C)C(=O)N(C)[C@H](C[C@@H](OC(C)=O)c1nc(C(=O)N[C@@H](Cc2ccc(N)cc2)C(=O)O)cs1)C(C)C [Compound 56] | – | – | – | – | – | – | – | – | 29 | > 100 | 5.7 | > 100 | 28 | > 100 | > 100 | > 100 | > 100 | > 100 | > 100 | > 100 | EC50 (NCI-H460 [1]; [21]): > 100 nM; EC50 (786-O [2]; [23]): > 100 nM; EC50 (ZR-75; [24]): > 100 nM; EC50 (HCT-15; [25]): > 3000 nM; EC50 (SK-BR3): > 100 nM
